pIC50: −log10 of the molar value.
What was measured:
Type in all cases: functional, cell-based
CCRF-CEM = assay: Cytotoxicity against human CEM cells
[1] = Cytotoxicity against human Molt 4/C8 cells; conditions: Molt4/C8
L1210 = assay: Cytotoxicity against mouse L1210 cells

Row | SMILES | pIC50 (CCRF-CEM) | pIC50 [1] | pIC50 (L1210)
1 | NC(=S)N/N=C/c1ccc(Cl)cc1 | 3.71 | 3.52 | 3.55
2 | NC(=S)N/N=C/c1ccccc1F | 3.78 | 3.85 | 3.62
3 | NC(=S)N/N=C/c1ccccc1Cl | 4.01 | 3.70 | 4.08
4 | NC(=S)/N=N/c1c(O)[nH]c2ccccc12 | 3.60 | 3.39 | 3.42
5 | COc1ccc(/C=N/NC(N)=S)cc1 | 3.80 | 3.71 | 3.63
6 | Oc1ccccc1/C=N/c1ccc(F)c(Cl)c1 | 4.00 | 3.95 | 4.17

Source: ChEMBL document CHEMBL1139806, “Synthesis, anticancer, and cytotoxic activities of some mononuclear Ru(II) compounds” (Bioorg Med Chem, 2007)
